39 compounds from patent US20230157996A1, “SMALL-MOLECULE INHIBITOR TARGETING EB VIRUS NUCLEAR ANTIGEN PROTEIN, PREPARATION METHOD AND USE THEREOF” (priority 2020, published 2023) can be followed below.

Where two headings read alike, the source gives them in different places.

For this experiment, the system named is C666-1 cells. Briefly: C666-1 cell viability single concentration (50 μM) inhibition rate (Resazurin). The experiment is classed as cell-based. As to conditions: for inhibition at 50 µM: Homo sapiens, C6661, 72 h, read-out: C666-1 cell viability single concentration (50 μM) inhibition rate, Ratio* (Inh %). The method in brief:
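EBV-positive C666-1 cells (5×10^3/well), pre-cultured 24 h, were exposed to compound at 50 μmol/L final for 72 h at 37° C, 5% CO2, in duplicate. Viability by resazurin (3 h, ex 560/em 590 nm); inhibition rate computed relative to DMSO control and medium-only blank.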

The mark [1] stands for this setting: 50 μM compound, 72 hours, C666-1 cells.

With `O=C(O)c1cccc(N2CC(Oc3ccc(COc4cccnc4)cc3)C2)c1-n1cccc1` [Example 244, 3-(3-(4-((pyridin-3-yl-oxy)methyl)phenoxy)azetidin-1-yl)-2-(1H-pyrrol-1-yl)benzoic acid], the inhibition at 50 µM under setting [1] is 30 to 50%.

Take `Nc1cccc(N2CC3(C2)CN(c2cccc(C(=O)O)c2N)C3)c1` [Compound 34, 2-amino-3-(6-(3aminophenyl)-2,6-diazaspiro[3.3]heptan-2-yl)benzoic acid]: the inhibition at 50 µM under setting [1] was less than 10%.

As to `CCNC(=S)OC1CN(c2cccc(C(=O)OC)c2-n2cccc2)C1` [Example 160, Methyl 3-(3-((ethylthiocarbamoyl)oxy)azetidin-1-yl)-2-(1H-pyrrol-1-yl)benzoate], under setting [1], the inhibition at 50 µM lay in the range of 30 to 50%.

For `CCOCc1ccc(OC2CN(c3cccc(C(=O)O)c3-n3cccc3)C2)cc1` [Example 233, 3-(3-(4-(ethoxymethyl)phenoxy)azetidin-1-yl)-2-(1H-pyrrol-1-yl)benzoic acid], the inhibition at 50 µM under setting [1] is less than 10%.

`O=C(Nc1ccc(Cl)cc1)OCc1ccc(OC2CN(c3cccc(C(=O)O)c3-n3cccc3)C2)cc1` [Example 237]: the inhibition at 50 µM under setting [1] was less than 10%.

`COCCOc1ccc(OC2CN(c3cccc(C(=O)O)c3-n3cccc3)C2)cc1OCCOC` [Example 307, 3-(3-(3,4-bis(2-methoxyethoxy)phenoxy)azetidin-1-yl)-2-(1H-pyrrol-1-yl)benzoic acid]: under setting [1], the inhibition at 50 µM is less than 10%.

On to `Nc1c(C(=O)O)cccc1N1CC2(CN(c3ccccc3)C2)C1` [Compound 10, 2-amino-3-(6-phenyl-2,6-diazaspiro[3.3]heptan-2-yl)benzoic acid], for which, under setting [1], the inhibition at 50 µM was less than 10%.

`O=C(O)c1cccc(N2CC(Oc3ccc(CO)cc3)C2)c1-c1cccc(C(F)(F)F)c1` [Compound 60, 3′-(trifluoromethyl)-6-(3-(4-(hydroxymethyl)phenoxy)azetidin-1-yl)-[1,1′-biphenyl]-2-formic acid]: the inhibition at 50 µM under setting [1] was less than 10%.

Consider `Nc1ccc(N2CC3(C2)CN(c2cccc(C(=O)O)c2N)C3)cc1` [Compound 14, 2-amino-3-(6-(4-aminophenyl)-2,6-diazaspiro[3.3]heptan-2-yl)benzoic acid], for which, under setting [1], the inhibition at 50 µM is less than 10%.

`COC(=O)c1cccc(N2CC(Oc3ccc(O)cc3)C2)c1-n1cccc1` [Example 187, Methyl 3-(3-(4-hydroxylphenoxy)azetidin-1-yl)-2-(1H-pyrrol-1-yl)benzoate]: the inhibition at 50 µM under setting [1] was less than 10%.

As for `CCOc1ccc(OC2CN(c3cccc(C(=O)O)c3-n3cccc3)C2)cc1` [Example 100, 3-(3-(4-ethoxyphenoxy)azetidin-1-yl)-2-(1H-pyrrol-1-yl)benzoic acid], under setting [1], the inhibition at 50 µM is less than 10%.

With `O=C(O)c1cccc(N2CC(Oc3cc(Cl)nc(Cl)c3)C2)c1-n1cccc1` [Compound 92, 3-(3-((2,6-dichloropyridin-4-yl)oxy)azetidin-1-yl)-2-(1H-pyrrol-1-yl)benzoic acid], under setting [1], the inhibition at 50 µM is less than 10%.

On to `CCOc1ccc(OC2CN(c3cccc(C(=O)OC)c3-n3cccc3)C2)cc1` [Example 99, Methyl 3-(3-(4-ethoxyphenoxy)azetidin-1-yl)-2-(1H-pyrrol-1-yl)benzoate], for which, under setting [1], the inhibition at 50 µM was less than 10%.

Turning to `O=C(Nc1ccc(OC2CN(c3cccc(C(=O)O)c3-n3cccc3)C2)cc1)NC1CCCCC1` [Example 131, 3-(3-(4-(3-cyclohexylureido)phenoxy)azetidin-1-yl)-2-(1H-pyrrol-1-yl)benzoic acid], the inhibition at 50 µM under setting [1] is less than 10%.

In the case of `O=C(O)c1cccc(N2CC3(C2)CN(c2cccc(C(=O)O)c2-n2cccc2)C3)c1` [Compound 18, 3-(6-(3-carboxylphenyl)-2,6-diazaspiro[3.3]heptan-2-yl)-2-(1H-pyrrol-1-yl)benzoic acid], under setting [1], the inhibition at 50 µM was less than 10%.

As for `COC(=O)c1cccc(N2CC(Oc3ccc(COC(C)=O)cc3)C2)c1-n1cccc1` [Compound 74, Methyl 3-(3-(4-(acetoxylmethyl)phenoxy)azetidin-1-yl)-2-(1H-pyrrol-1-yl)benzoate], the inhibition at 50 µM under setting [1] is less than 10%.

`COC(=O)c1cccc(N2CC(Oc3ccc(CO)cc3)C2)c1-c1cccc(C(=O)O)c1` [Example 279]: the inhibition at 50 µM under setting [1] is 10 to 30%.

With `O=C(O)c1cccc(N2CC(Oc3cc(F)nc(F)c3)C2)c1-n1cccc1` [Example 285, 3-(3-((2,6-difluoropyridin-4-yl)oxy)azetidin-1-yl)-2-(1H-pyrrol-1-yl)benzoic acid], under setting [1], the inhibition at 50 µM is less than 10%.

For the compound `CCCCCCCC(=O)OCc1ccc(OC2CN(c3cccc(C(=O)OC)c3-n3cccc3)C2)cc1` [Compound 75, Methyl 3-(3-(4-((octanoyloxy)methyl)phenoxy)azetidin-1-yl)-2-(1H-pyrrol-1-yl)benzoate], under setting [1], the inhibition at 50 µM lay within 10 to 30%.

`COC(=O)c1cccc(N2CC(Oc3ccc(CO)cc3)C2)c1-c1ccco1` [Compound 47]: the inhibition at 50 µM under setting [1] is 30 to 50%.

For `COC(=O)c1cccc(N2CC(Oc3ccc(C(C)O)cc3)C2)c1-n1cccc1` (stereo not drawn) [Compound 89, Methyl 3-(3-(4-(1-hydroxyethyl)phenoxy)azetidin-1-yl)-2-(1H-pyrrol-1-yl)benzoate], the inhibition at 50 µM under setting [1] is more than 50%.

On to `COCCOc1ccc(OC2CN(c3cccc(C(=O)O)c3-n3cccc3)C2)cc1OC` [Example 219, 3-(3-(3-methoxy-4-(2-methoxyethoxy)phenoxy)azetidin-1-yl)-2-(1H-pyrrol-1-yl)benzoic acid], for which the inhibition at 50 µM under setting [1] was less than 10%.

In the case of `COC(=O)c1cccc(N2CC(Oc3ccc(-c4csc(NS(C)(=O)=O)n4)cc3)C2)c1-n1cccc1` [Example 261, Methyl 3-(3-(4-(2-(methylsulfonamido)thiazol-4-yl)phenoxy)azetidin-1-yl)-2-(1H-pyrrol-1-yl)benzoate], the inhibition at 50 µM under setting [1] was less than 10%.

`O=C(O)c1cccc(N2CC(Oc3ccc(CO)cc3)C2)c1-c1ccccc1` [Compound 42]: the inhibition at 50 µM under setting [1] is less than 10%.

Take `COC(=O)c1cccc(N2CC(Oc3ccc(C(=O)Nc4ccc(F)cc4)cc3)C2)c1-n1cccc1` [Example 267, Methyl 3-(3-(4-((4-fluorophenyl)carbamoyl)phenoxy)azetidin-1-yl)-2-(1H-pyrrol-1-yl)benzoate]: the inhibition at 50 µM under setting [1] is less than 10%.

Turning to `COC(=O)c1cccc(N2CC(Oc3ccc(NC(=S)Nc4ccc(Cl)cc4)cc3)C2)c1-n1cccc1` [Example 226, Methyl 3-(3-(4-(3-(4-chlorophenyl)thioureido)phenoxy)azetidin-1-yl)-2-(1H-pyrrol-1-yl)benzoate], under setting [1], the inhibition at 50 µM lay within 10 to 30%.

In the case of `COC(=O)c1cccc(N2CC(Oc3ccc(CNc4ccccc4)cc3)C2)c1-n1cccc1` [Example 362], the inhibition at 50 µM under setting [1] was less than 10%.

As to `O=C(O)c1ccc(N2CC3(C2)CN(c2cccc(C(=O)O)c2-n2cccc2)C3)cc1` [Compound 24, 3-(6-(4-carboxylphenyl)-2,6-diazaspiro[3.3]heptan-2-yl)-2-(1H-pyrrol-1-yl)benzoic acid], the inhibition at 50 µM under setting [1] is less than 10%.

For the compound `CCCOc1ccc(OC2CN(c3cccc(C(=O)OC)c3-n3cccc3)C2)cc1` [Example 105, Methyl 3-(3-(4-propoxyphenoxy)azetidin-1-yl)-2-(1H-pyrrol-1-yl)benzoate], the inhibition at 50 µM under setting [1] is less than 10%.

On to `O=C(O)c1cccc(N2CC(Oc3ccc(O)cc3)C2)c1-n1cccc1` [Example 188, 3-(3-(4-hydroxylphenoxy)azetidin-1-yl)-2-(1H-pyrrol-1-yl)benzoic acid], for which the inhibition at 50 µM under setting [1] is less than 10%.

Consider `O=C(O)c1cccc(N2CC(Oc3ccc([N+](=O)[O-])cc3)C2)c1-n1cccc1` [Example 301, 3-(3-(4-nitrophenoxy)azetidin-1-yl)-2-(1H-pyrrol-1-yl)benzoic acid], for which the “C666-1 cell viability single concentration (50 μM) inhibition rate, Ratio* (Inh %)” value under setting [1] is reported as “++++ (>50% ++++)”.

Consider `COC(=O)c1cccc(N2CC(Oc3cccc(-c4csc(NS(C)(=O)=O)n4)c3)C2)c1-n1cccc1` [Example 288, Methyl 3-(3-(3-(2-(methylsulfonamido)thiazol-4-yl)phenoxy)azetidin-1-yl)-2-(1H-pyrrol-1-yl)benzoate], for which the inhibition at 50 µM under setting [1] is less than 10%.

With `Cc1ccc(S(=O)(=O)N(C#Cc2cccc(C(=O)O)c2-n2cccc2)Cc2cccs2)cc1` [Example 329, Lithium 3-(((4-methyl-N-(thiophen-2-yl-methyl)phenyl)sulfonamido)ethynyl)-2-(1H-pyrrol-1-yl)benzoate], the inhibition at 50 µM was more than 50%.

Turning to `COC(=O)c1cccc(N2CC(Oc3ccc4c(ccn4S(=O)(=O)c4ccc(C)cc4)c3)C2)c1-n1cccc1` [Example 304, Methyl 3-(3-((1-p-tolylsulfonyl-1H-indol-5-yl)oxy)azetidin-1-yl)-2-(1H-pyrrol-1-yl)benzoate], the inhibition at 50 µM under setting [1] is less than 10%.

As for `COC(=O)c1cccc(N2CC(Oc3ccc(COC4COC4)cc3)C2)c1-n1cccc1` [Example 377, Methyl 3-(3-(4-((oxetanyl-3-oxy)methyl)phenoxy)azetidin-1-yl)-2-(1H-pyrrol-1-yl)benzoate], the inhibition at 50 µM under setting [1] is more than 50%.

As for `COC(=O)c1cccc(C#CN(Cc2ccc(OC)cc2)S(=O)(=O)c2ccc(C)cc2)c1-n1cccc1` [Example 385], the inhibition at 50 µM under setting [1] lay in the range of 10 to 30%.

Turning to `Nc1c(C(=O)O)cccc1N1CC(Oc2ccc(CO)cc2)C1` [Compound 36, 2-amino-3-(3-(4-(hydroxymethyl)phenoxy)azetidin-1-yl)benzoic acid], under setting [1], the inhibition at 50 µM is less than 10%.

As to `COC(=O)c1cccc(N2CC(OC(=O)NC3CCCCC3)C2)c1-n1cccc1` [Example 149, Methyl 3-(3-((cyclohexylcarbamoyl)oxy)azetidin-1-yl)-2-(1H-pyrrol-1-yl)benzoate], the inhibition at 50 µM under setting [1] was in the range of 10 to 30%.

Turning to `COCCOc1ccc(OC2CN(c3cccc(C(=O)OC)c3-n3cccc3)C2)cc1OCCOC` [Example 306, Methyl 3-(3-(3,4-bis(2-methoxyethoxy)phenoxy)azetidin-1-yl)-2-(1H-pyrrol-1-yl)benzoate], under setting [1], the inhibition at 50 µM is less than 10%.
